The results in this text go back to patent publication US8067619B2, “Coumarin derivatives as ion channel openers” (Janssen Pharmaceutica N.V., priority 2005, dated 2011).

As a reminder, the EC50 is the midpoint of the concentration-response curve. High values mean a need for much substance, low ones an effect from little substance.

T1 sequence (O60706 1-1549 isoform O60706-2): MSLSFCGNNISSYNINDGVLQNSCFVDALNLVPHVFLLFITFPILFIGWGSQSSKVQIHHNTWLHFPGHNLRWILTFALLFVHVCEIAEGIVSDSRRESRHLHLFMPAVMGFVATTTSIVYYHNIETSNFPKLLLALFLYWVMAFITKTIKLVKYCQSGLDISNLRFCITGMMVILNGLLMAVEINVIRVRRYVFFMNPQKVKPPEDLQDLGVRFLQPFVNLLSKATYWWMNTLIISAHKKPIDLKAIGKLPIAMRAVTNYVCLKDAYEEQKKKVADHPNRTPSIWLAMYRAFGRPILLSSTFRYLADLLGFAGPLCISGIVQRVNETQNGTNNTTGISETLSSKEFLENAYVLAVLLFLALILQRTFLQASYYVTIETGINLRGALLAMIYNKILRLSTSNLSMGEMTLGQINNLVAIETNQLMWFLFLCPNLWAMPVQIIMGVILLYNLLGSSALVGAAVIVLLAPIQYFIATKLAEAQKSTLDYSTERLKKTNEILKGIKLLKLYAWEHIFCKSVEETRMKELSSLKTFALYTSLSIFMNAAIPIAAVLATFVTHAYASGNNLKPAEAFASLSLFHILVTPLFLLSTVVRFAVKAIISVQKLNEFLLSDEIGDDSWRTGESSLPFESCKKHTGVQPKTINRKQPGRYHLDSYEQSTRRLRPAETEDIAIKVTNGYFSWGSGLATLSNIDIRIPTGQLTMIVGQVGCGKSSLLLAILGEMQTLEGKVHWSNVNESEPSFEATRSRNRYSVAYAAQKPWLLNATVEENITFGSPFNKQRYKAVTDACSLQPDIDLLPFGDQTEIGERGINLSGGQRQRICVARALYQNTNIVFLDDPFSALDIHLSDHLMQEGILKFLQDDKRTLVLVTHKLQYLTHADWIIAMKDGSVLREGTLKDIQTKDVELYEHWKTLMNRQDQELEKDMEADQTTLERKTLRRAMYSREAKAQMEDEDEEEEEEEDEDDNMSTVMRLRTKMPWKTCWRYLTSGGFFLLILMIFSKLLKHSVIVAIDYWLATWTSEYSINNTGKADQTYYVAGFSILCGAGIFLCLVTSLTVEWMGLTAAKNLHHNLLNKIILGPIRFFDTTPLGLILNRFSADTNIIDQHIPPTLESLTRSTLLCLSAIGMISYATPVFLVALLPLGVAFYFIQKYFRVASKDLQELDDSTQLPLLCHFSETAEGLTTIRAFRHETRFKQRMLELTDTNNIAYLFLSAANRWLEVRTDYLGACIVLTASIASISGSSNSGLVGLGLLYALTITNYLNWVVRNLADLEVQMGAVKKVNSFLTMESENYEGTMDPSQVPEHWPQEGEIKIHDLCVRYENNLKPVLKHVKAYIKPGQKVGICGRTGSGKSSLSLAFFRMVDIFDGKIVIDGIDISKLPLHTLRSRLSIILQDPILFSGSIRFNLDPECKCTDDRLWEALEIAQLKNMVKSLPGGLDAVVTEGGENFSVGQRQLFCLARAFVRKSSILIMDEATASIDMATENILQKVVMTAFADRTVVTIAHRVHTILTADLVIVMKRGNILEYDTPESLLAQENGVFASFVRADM
T1 sequence (Q14654 whole entry): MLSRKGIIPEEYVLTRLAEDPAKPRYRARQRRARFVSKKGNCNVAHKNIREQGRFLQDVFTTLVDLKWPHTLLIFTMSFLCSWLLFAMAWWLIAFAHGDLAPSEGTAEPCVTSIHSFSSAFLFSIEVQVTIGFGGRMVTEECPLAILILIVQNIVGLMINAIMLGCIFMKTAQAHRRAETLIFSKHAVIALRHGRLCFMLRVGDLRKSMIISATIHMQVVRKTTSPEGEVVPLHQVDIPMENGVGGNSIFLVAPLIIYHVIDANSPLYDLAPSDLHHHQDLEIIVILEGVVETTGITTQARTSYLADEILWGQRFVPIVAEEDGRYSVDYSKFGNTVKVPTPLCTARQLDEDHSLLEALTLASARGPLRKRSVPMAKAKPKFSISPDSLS

The assay concerns the target T1, KATP channels (Homo sapiens, UniProt O60706+Q14654).
T1 construct: TE671 human medulloblastoma cells were obtained from ATCC; host or cells: TE671 human medulloblastoma cells
Nature of the assay: Potassium Channel Assay (FLIPR membrane potential, TE671 cells). It counts as cell-based. To be noted: TE671 human medulloblastoma cells, Membrane Potential Assay Dye, room temperature, hyperpolarization from KATP channel opening seen as decrease in fluorescent intensity. As to the method:
TE671 human medulloblastoma cells were obtained from ATCC and grown in Dulbecco's modified Eagle's medium (DMEM) supplemented with 10% fetal bovine serum, 100 U/ml penicillin and 100 U/ml streptomycine.
The day before testing, the cells were plated in black 96-well plates at 50K/well. On the day of testing, the growth media was removed, then 100 μl of FLIPR buffer (20 mM HEPES, 120 mM NaCl, 2 mM KCl, 2 mM CaCl2, 1 mM MgCl2, 5 mM Glucose) and 100 μl of Membrane Potential Assay Dye (Molecular Devices) dissolved in FLIPR buffer were added to each well. The cells were incubated at room temperature for 15 to 30 min.
The effect of test compounds on KATP channels were evaluated on a fluorometric imaging plate reader (FLIPR, Molecular Devices) at room temperature. After a baseline period, 50 μl of 5× stock solution of test compound prepared in FLIPR buffer was added and fluorescent change was monitored for 3 minutes. After this reading, glyburide, a KATP channel blocker, was added to a final concentration of 5 μM to check the specificity of the test compound as a KATP channel openers. Hyperpolarization resulting from KATP channel opening was observed as a decrease in fluorescent intensity.
Consider `COCCc1c(-c2ccc(OC)cc2OC)c(=O)oc2cc(OS(=O)(=O)C(F)(F)F)ccc12` [Compound 2, Trifluoro-methanesulfonic acid 3-(2,4-dimethoxy-phenyl)-4-(2-methoxy-ethyl)-2-oxo-2H-chromen-7-yl ester], for which the EC50 is 9.55 µM. Take `Cc1c(C(=O)c2ccc(Cl)cc2)c(=O)oc2cc(C#N)ccc12` [Compound 3, 3-(4-Chloro-benzoyl)-4-methyl-2-oxo-2H-chromene-7-carbonitrile]: the EC50 is over 30 µM.

Turning to `N#Cc1ccc2c(CC(=O)c3ccc(Cl)cc3)cc(=O)oc2c1` [Compound 4, 4-[2-(4-Chloro-phenyl)-2-oxo-ethyl]-2-oxo-2H-chromene-7-carbonitrile], the response was half-maximal at 15.9 µM (EC50). For `COCCc1c(-c2ccc(OC)cc2OC)c(=O)oc2cc(C#N)ccc12` [Compound 6, 3-(2,4-Dimethoxy-phenyl)-4-(2-methoxy-ethyl)-2-oxo-2H-chromene-7-carbonitrile], the EC50 is over 30 µM. With `O=c1oc2cc(OS(=O)(=O)C(F)(F)F)ccc2c(CCO)c1-c1ccc(O)cc1O` [Compound 7, Trifluoro-methanesulfonic acid 3-(2,4-dihydroxy-phenyl)-4-(2-hydroxy-ethyl)-2-oxo-2H-chromen-7-yl ester], the EC50 was determined as 19.5 µM.

`N#Cc1ccc2c(CCO)c(-c3ccc(O)cc3O)c(=O)oc2c1` [Compound 8, 3-(2,4-Dihydroxy-phenyl)-4-(2-hydroxy-ethyl)-2-oxo-2H-chromene-7-carbonitrile] showed an EC50 of 23.2 µM. The figure for `C=Cc1c(-c2ccc(O)cc2O)c(=O)oc2cc(C#N)ccc12` [Compound 9, 3-(2,4-Dihydroxy-phenyl)-2-oxo-4-vinyl-2H-chromene-7-carbonitrile] is 3.29 µM; for `C=Cc1c(-c2ccc(C#N)cc2O)c(=O)oc2cc(F)ccc12` [Compound 11, 44-(7-Fluoro-2-oxo-4-vinyl-2H-chromen-3-yl)-3-hydroxy-benzonitrile] it is over 30 µM; for `O=c1cc(CC(O)c2ccc(Cl)cc2Cl)c2ccc(OS(=O)(=O)C(F)(F)F)cc2o1` (stereo not shown) [Compound 12, Trifluoro-methanesulfonic acid 4-[2-(2,4-dichloro-phenyl)-2-hydroxy-ethyl]-2-oxo-2H-chromen-7-yl ester] it is 6.58 µM. `O=C(Cc1cc(=O)oc2cc(OS(=O)(=O)C(F)(F)F)ccc12)Nc1c(Cl)cc(Cl)cc1Cl` [Compound 13, Trifluoro-methanesulfonic acid 2-oxo-4-[(2,4,6-trichloro-phenylcarbamoyl)-methyl]-2H-chromen-7-yl ester] yielded an EC50 of 8.76 µM. For `N#Cc1ccc2c(CC(O)c3ccc(Cl)cc3Cl)cc(=O)oc2c1` (stereo not shown) [Compound 14, 4-[2-(2,4-Dichloro-phenyl)-2-hydroxy-ethyl]-2-oxo-2H-chromene-7-carbonitrile] the value was over 30 µM. For `N#Cc1ccc2c(CC(=O)Nc3ccc(F)cc3F)cc(=O)oc2c1` [Compound 15, 2-(7-Cyano-2-oxo-2H-chromen-4-yl)-N-(2,4-difluoro-phenyl)-acetamide] the value was 13.9 µM; for `N#Cc1ccc2c(CC(=O)Nc3ccccc3F)cc(=O)oc2c1` [Compound 16, 2-(7-Cyano-2-oxo-2H-chromen-4-yl)-N-(2-fluoro-phenyl)-acetamide], 3.84 µM. For `N#Cc1ccc2c(CC(=O)Nc3ccccc3Cl)cc(=O)oc2c1` [Compound 17, N-(2-Chloro-phenyl)-2-(7-cyano-2-oxo-2H-chromen-4-yl)-acetamide] the value was 19.5 µM; for `N#Cc1ccc2c(CC(=O)Nc3cccc(Cl)c3)cc(=O)oc2c1` [Compound 18, N-(3-Chloro-phenyl)-2-(7-cyano-2-oxo-2H-chromen-4-yl)-acetamide], 7.74 µM; for `N#Cc1ccc2c(CC(=O)Nc3cccc(Cl)c3Cl)cc(=O)oc2c1` [Compound 19, 2-(7-Cyano-2-oxo-2H-chromen-4-yl)-N-(2,3-dichloro-phenyl)-acetamide], 10.7 µM. Turning to `N#Cc1ccc2oc(=O)cc(CC(O)c3ccc(Cl)cc3Cl)c2c1` (stereo not shown) [Compound 20, 4-[2-(2,4-Dichloro-phenyl)-2-hydroxy-ethyl]-2-oxo-2H-chromene-6-carbonitrile], the EC50 is over 30 µM. The figure for `N#Cc1ccc2oc(=O)cc(CC(=O)c3cccc(Cl)c3)c2c1` [Compound 21, 4-[2-(3-Chloro-phenyl)-2-oxo-ethyl]-2-oxo-2H-chromene-6-carbonitrile] is over 30 µM.

As for `O=C(Cc1cc(=O)oc2ccc(OS(=O)(=O)C(F)(F)F)cc12)c1cccc(Cl)c1` [Compound 22, Trifluoro-methanesulfonic acid 4-[2-(3-chloro-phenyl)-2-oxo-ethyl]-2-oxo-2H-chromen-6-yl ester], the EC50 amounted to 19.9 µM.
